Experimental data taken from patent publication US9840532B2, “5′-substituted nucleoside compounds” (Eli Lilly and Company, priority 2015, dated 2017).

test system: PRMT5-dependent alternative splicing of MDM4 in A375 melanoma cells; assay: MDM4 Exon5/6 qPCR Assay in A375 Tumor Cells; format: cell-based; conditions: Homo sapiens, A-375, 72 hr, Mean ± SEM
Experimental: Culture A375 tumor cells (ATCC), a melanoma cancer cell line, to 70%-90% confluence in T150 flasks with the growth medium (DMEM; HYCLONE™ #SH30022 with 10% FBS; GIBCO® 10082-147 or equivalent). Treat the cells with standard trypsin/EDTA treatment for 3 min and aspirate and wash with PBS to release the adherent cells from the culture flask. Seed the cells into a 96 well plate (Costar 3596) at 5000/well in growth medium (90 μL). Incubate the plate overnight at 37° C. and 5% CO2 and treat the cells with test compound at serial dilutions ([…], final DMSO addition of 0.2% yield) for 72 hr. Measure activity relative to maximum (2.0 μM of Example 2 and minimum (0.2% DMSO) controls.
On Day 5 after incubation, remove the medium from the culture plates and wash the cells twice with cold PBS (150 μL/well). Prepare Lysis Working Reagent from the TAQMAN® Gene Expression Cells-to-CT Kit (INVITROGEN™ cat. # AM1729) by dilution of DNAse 1 into Lysis Solution at 1/100. Add Lysis Working Reagent (50 μL/well) to the cell plates, mix well, and incubate at room temperature for 5 min Add kit stop solution (5 μL) to each well, mix the wells, and incubate for 2 min at room temperature. Prepare Reverse Transcriptase Master Mix in the following volume ratios; RT buffer: Nuclease-free water: RT Enzyme at 62.5:31.25:6.25. Add RT mix (48 μL/well) to each well of a 96-well NUNC™ plate (THERMO SCIENTIFIC™ #260860). Add RT mix (20 μL) and each cell lysate sample (5 μL) into a 384 PCR plate (Clear Optical Reaction Plate, cat. #4309849, APPLIED BIOSYSTEMS®) quadrant 1 and add a second addition of RT Mix and cell lysate to quadrant 3. For the RT reaction, seal the plates and then place them in a thermal cycler set at 37° C. for 60 min; 95° C. for 5 min; stop at 4° C. For qPCR, prepare MDM4 exon 5 primers (Life Technologies Hs00967240-ml) and exon 6 primers (Life Technologies Hs00967242-ml) separately in the following volume ratios of RT mix: H2O: exon probe at 10:6:1. Add Exon 5 (17 μL) to odd columns of a 384 PCR plate and add exon 6 (17 μL) to the even columns. Add cDNA (3 μL, from the RT plate) by quadrant stamping to each well of the qPCR plate containing the 17 μL exon primer solution. In this manner, perform qPCR for both exons on cDNAs from a single RT reaction on an individual cell lysate. Seal the plates, spin, and place on a real-time PCR instrument (Life Technologies ViiA7 Real-Time PCR). […]
Retrieve CT data from the real-time PCR reader and perform the following calculations, where “CPD” is the value from compound-treated samples, and “DMSO” is the minimum control sample, using an Excel template: (Exon 6 CT CPD−Exon 6 CT DMSO)−(Exon 5 CT CPD−Exon 5 CT DMSO)=ΔCT 2^(−ΔCT)=Fold Change […]

Row | EC50 | Structure (SMILES)
1 | 16.8 nM | Nc1ncnc2c1ccn2[C@@H]1O[C@H]([C@H](O)c2ccc(Cl)cc2)[C@@H](O)[C@H]1O [Example 1, (2R,3R,4S,5R)-2-(4-Aminopyrrolo[2,3-d]pyrimidin-7-yl)-5-[(R)-(4-chlorophenyl)-hydroxy-methyl]tetrahydrofuran-3,4-diol]
2 | 42.4 nM | C[C@@](O)(c1ccc(Cl)cc1)[C@H]1O[C@@H](n2ccc3c(N)ncnc32)[C@H](O)[C@@H]1O [Example 3, (2R,3R,4S,5S)-2-(4-Aminopyrrolo[2,3-d]pyrimidin-7-yl)-5-[(1R)-1-(4-chlorophenyl)-1-hydroxy-ethyl]tetrahydrofuran-3,4-diol]

Row | Structure (SMILES) | EC50
3 | Nc1ncnc2c1ccn2[C@@H]1O[C@H]([C@H](O)c2ccccc2)[C@@H](O)[C@H]1O [Example 2, (2R,3R,4S,5R)-2-(4-Aminopyrrolo[2,3-d]pyrimidin-7-yl)-5[(R)-hydroxy(phenyl)methyl]tetrahydrofuran-3,4-diol] | 36.7 nM
